Here are results for four compounds from ChEMBL document CHEMBL1133427, “Membrane-permeant, bioactivatable analogues of cGMP as inducers of cell death in IPC-81 leukemia cells” (Bioorg Med Chem Lett, 2000).

Activity calls are given as the source filed them. No cut-off for these calls is given here.

The species named for assay [1] is Rattus norvegicus. Put plainly: Compound was tested as initiator of cell death in IPC-81 leukemia cells; Inactive. In kind it is functional, cell-based.
The nature of assay [2]: Effective dose of compound required to induce death in IPC-81 leukemia cells; Range 40-80. In kind it is functional, cell-based, Rattus norvegicus.

One may read the EC50 as the concentration at which the effect is half-maximal. Low values mean an effect from little substance, high ones a need for much substance. Regarding `CC(=O)OCOP1(=O)OC[C@@H]2O[C@@H](n3c(Br)nc4c(O)nc(N)nc43)[C@H](O)[C@@H]2O1` (stereo partly specified), the outcome in assay [1] was inactive. Moreover, the response in assay [2] was half-maximal at 80 µM (EC50). For `CC(=O)OCOP1(=O)OC[C@@H]2O[C@@H](n3cnc4c(=O)n(C)c(N)nc43)[C@H](O)[C@@H]2O1` (stereo partly specified) the same measures were “inactive” and 80 µM. For the compound `CC(=O)OCOP1(=O)OC[C@@H]2O[C@@H](N3C(Sc4ccc(Cl)cc4)=NC4C(=O)N=C(N)N=C43)[C@H](O)[C@@H]2O1` (stereo partly specified), the result in assay [1] was inactive.

As to `CC(=O)OCOP1(=O)OCC2OC(n3cnc4c(=O)n(C)c(N)nc43)CC(O)C2O1` (stereo unspecified), the result in assay [1] was inactive.
